Read-outs that look alike come from different tables or passages of the source.
Legend:
I172A mutant TbbTIM [1] = target: T1, I172A mutant TbbTIM (Trypanosoma brucei brucei, UniProt P04789, I172A); test: TIM-catalyzed isomerization of DHAP and arsenate inhibition; type: biochemical; conditions: 30 mM TEA, pH 7.5, 25 °C, I = 0.1 (NaCl)
I172V mutant TbbTIM [2] = target: T2, I172V mutant TbbTIM (Trypanosoma brucei brucei, UniProt P04789, I172V); test: as above; type: biochemical; conditions: 30 mM TEA, pH 7.5, 25 °C, I = 0.1 (NaCl)
wildtype TbbTIM [3] = conditions: cited from earlier work
L232A mutant TbbTIM [4] = target: T3, L232A mutant TbbTIM (Trypanosoma brucei brucei, UniProt P04789, L232A); conditions: 30 mM TEA, pH 7.5, 25 °C, I = 0.1 (NaCl), cited from earlier work
L232A mutant TbbTIM [5] = target: T3, L232A mutant TbbTIM; type: biochemical; conditions: for Fractional Product Yield fE: fraction of the three TIM-catalyzed products, 5 mM GAP, 3.4 nM L232A, D2O
WT chicken TIM [6] = conditions: cited from earlier work
I172A mutant TbbTIM [7] = target: T1, I172A mutant TbbTIM; type: biochemical; conditions: for Fractional Product Yield fE: fraction of the three TIM-catalyzed products, 5 mM GAP, 65 nM I172A, D2O
E165D chicken TIM [8] = conditions: cited from earlier work
E165D/S96P chicken TIM [9] = conditions: cited from earlier work
I172V mutant TbbTIM [10] = target: T2, I172V mutant TbbTIM; test: TIM-catalyzed isomerization of GAP; type: biochemical; conditions: 30 mM TEA, pH 7.5, 25 °C, I = 0.1 (NaCl)
E165D/S96P chicken TIM [11] = conditions: cited from earlier work; remark: listed apart in the source
E165D chicken TIM [12] = conditions: cited from earlier work; remark: listed apart in the source
wildtype TbbTIM [13] = type: biochemical, Trypanosoma brucei brucei; conditions: reaction of GAP in D2O, pD 7.9, 25 °C; from product yields
I172A mutant TbbTIM [14] = target: T1, I172A mutant TbbTIM; test: TIM-catalyzed isomerization of GAP; type: biochemical; conditions: 30 mM TEA, pH 7.5, 25 °C, I = 0.1 (NaCl)
L232A mutant TbbTIM [15] = target: T3, L232A mutant TbbTIM; conditions: 30 mM TEA, pH 7.5, 25 °C, I = 0.1 (NaCl), cited from earlier work; remark: listed apart in the source
wildtype TbbTIM [16] = conditions: 30 mM TEA, pH 7.5, 25 °C, I = 0.1 (NaCl), cited from earlier work
WT chicken TIM [17] = conditions: cited from earlier work; remark: listed apart in the source
I172V mutant TbbTIM [18] = target: T2, I172V mutant TbbTIM; test: Reaction of [1-13C]-GA in D2O with and without phosphite dianion, 1H NMR; type: biochemical; conditions: for Average product yield (mole fraction), phosphite dianion-activated reaction / Fractional yield from reaction at the enzyme active site: 20 mM [1-13C]-GA, D2O; for Average product yield (mole fraction), phosphite dianion-activated reaction: pD 7.0, I = 0.1, 25 °C, average over [HPO3^2-]; for Fractional yield from reaction at the enzyme active site: value in parenthesis, [HPO3^2-] 0 mM, pD 7.0, 25 °C
I172A mutant TbbTIM [19] = target: T1, I172A mutant TbbTIM; test: as above; type: biochemical; conditions: for Average product yield (mole fraction), phosphite dianion-activated reaction: 20 mM [1-13C]-GA, D2O, pD 7.0, I = 0.1, 25 °C, average over [HPO3^2-]
L232A mutant TbbTIM [20] = target: T3, L232A mutant TbbTIM; test: as above; type: biochemical; conditions: for Average product yield (mole fraction), phosphite dianion-activated reaction: 20 mM [1-13C]-GA, D2O, pD 7.0, I = 0.1, 25 °C, average over [HPO3^2-]
[21] = isomerization of GAP in D2O with intramolecular transfer of hydrogen
[22] = reaction of GAP in D2O, pD 7.9, 25 °C, from product yields
[23] = unactivated reaction of [1-13C]-GA in D2O (no HPO3^2-)
[24] = isomerization of [1-13C]-GA in D2O
[25] = read-out: Ki (arsenate), inhibition of DHAP isomerization

Q: Which “kcat (DHAP)” value (I172A mutant TbbTIM [1]) does the source give for `O=C(CO)COP(=O)(O)O` [DHAP, dihydroxyacetone phosphate] here?
A: 17 s⁻¹

Q: What about the Km (I172A mutant TbbTIM [1]; read-out: Km (DHAP)) of the same molecule?
A: 3700 µM

Q: What about the “kcat (DHAP)” value (I172V mutant TbbTIM [2]) of the same molecule?
A: 65 s⁻¹

Q: What about the Km (I172V mutant TbbTIM [2]; read-out: Km (DHAP)) of the same molecule?
A: 200 µM

Q: What about the “kcat (DHAP)” value (wildtype TbbTIM [3]; 30 mM TEA, pH 7.5, 25 °C, I = 0.1 (NaCl)) of the same molecule?
A: 300 s⁻¹

Q: What about the Km (wildtype TbbTIM [3]; read-out: Km (DHAP), 30 mM TEA, pH 7.5, 25 °C, I = 0.1 (NaCl)) of the same molecule?
A: 700 µM

Q: And the “kcat (DHAP)” value (L232A mutant TbbTIM [4])?
A: 4.7 s⁻¹

Q: What about the Km (L232A mutant TbbTIM [4]; read-out: Km (DHAP)) of the same molecule?
A: 77 µM

Q: And the “Fractional Product Yield fE” value (L232A mutant TbbTIM [5]; pD 7.9, 25 °C)?
A: 0.041

Q: What about the yield of product (L232A mutant TbbTIM [5]; [21]) of the same molecule?
A: 4%

Q: What about the “kcat (DHAP)” value (WT chicken TIM [6]) of the same molecule?
A: 600 s⁻¹

Q: And the Km (WT chicken TIM [6]; read-out: Km (DHAP))?
A: 650 µM

Q: And the “Fractional Product Yield fE” value (I172A mutant TbbTIM [7]; pD 7.9, 25 °C)?
A: 0.13

Q: And the yield of product (I172A mutant TbbTIM [7]; [21])?
A: 13%

Q: And the “kcat (DHAP)” value (E165D chicken TIM [8])?
A: 4.1 s⁻¹

Q: What about the Km (E165D chicken TIM [8]; read-out: Km (DHAP)) of the same molecule?
A: 1200 µM

Q: And the “kcat (DHAP)” value (E165D/S96P chicken TIM [9])?
A: 3.4 s⁻¹

Q: What about the Km (E165D/S96P chicken TIM [9]; read-out: Km (DHAP)) of the same molecule?
A: 53 µM

Q: For `O=C[C@H](O)COP(=O)(O)O` [GAP, R-glyceraldehyde 3-phosphate], which “kcat (GAP)” value (I172V mutant TbbTIM [10]) is on record?
A: 225 s⁻¹

Q: And the Km (I172V mutant TbbTIM [10]; read-out: Km (GAP))?
A: 58 µM

Q: What about the “kcat (GAP)” value (E165D/S96P chicken TIM [11]) of the same molecule?
A: 68 s⁻¹

Q: What about the Km (E165D/S96P chicken TIM [11]; read-out: Km (GAP)) of the same molecule?
A: 66 µM

Q: What about the “kcat (GAP)” value (E165D chicken TIM [12]) of the same molecule?
A: 4.2 s⁻¹

Q: And the Km (E165D chicken TIM [12]; read-out: Km (GAP))?
A: 78 µM

Q: And the “Rate Constant Ratio (kC1)D/(kC2)D” value (L232A mutant TbbTIM [5]; [22])?
A: 8.8

Q: What about the “Rate Constant Ratio kex/(kC1)H” value (L232A mutant TbbTIM [5]; [22]) of the same molecule?
A: 23

Q: What about the “Rate Constant Ratio (kC1)D/(kC2)D” value (wildtype TbbTIM [13]) of the same molecule?
A: 1.7

Q: What about the “Rate Constant Ratio kex/(kC1)H” value (wildtype TbbTIM [13]) of the same molecule?
A: 1.5

Q: What about the “kcat (GAP)” value (I172A mutant TbbTIM [14]) of the same molecule?
A: 12 s⁻¹

Q: What about the Km (I172A mutant TbbTIM [14]; read-out: Km (GAP)) of the same molecule?
A: 150 µM

Q: What about the “Rate Constant Ratio (kC1)D/(kC2)D” value (I172A mutant TbbTIM [7]; [22]) of the same molecule?
A: 0.74

Q: And the “Rate Constant Ratio kex/(kC1)H” value (I172A mutant TbbTIM [7]; [22])?
A: 6.7

Q: What about the “kcat (GAP)” value (L232A mutant TbbTIM [15]) of the same molecule?
A: 220 s⁻¹

Q: What about the Km (L232A mutant TbbTIM [15]; read-out: Km (GAP)) of the same molecule?
A: 140 µM

Q: And the “kcat (GAP)” value (wildtype TbbTIM [16])?
A: 2100 s⁻¹

Q: And the Km (wildtype TbbTIM [16]; read-out: Km (GAP))?
A: 250 µM

Q: And the “kcat (GAP)” value (WT chicken TIM [17])?
A: 8300 s⁻¹

Q: And the Km (WT chicken TIM [17]; read-out: Km (GAP))?
A: 420 µM

Q: Which results are given for `[2H]C([2H])(O)[13CH]=O` [[1-^13C, 2,2-di-^2H]-GA]?
A: yield of product (I172V mutant TbbTIM [18]; reaction of [1-13C]-GA in D2O in the absence of HPO3^2-): 25%; yield of product (I172A mutant TbbTIM [19]; [23]): 38%

Q: What does the source list for `[2H]C(O)[13CH]=O` (stereo not drawn) [[1-^13C, 2-^2H]-GA]?
A: Average product yield (mole fraction), phosphite dianion-activated reaction (L232A mutant TbbTIM [20]): 0.51 ± 0.02; Average product yield (mole fraction), phosphite dianion-activated reaction (I172V mutant TbbTIM [18]): 0.24 ± 0.02; Fractional yield from reaction at the enzyme active site (I172V mutant TbbTIM [18]): 0.55; Average product yield (mole fraction), phosphite dianion-activated reaction (I172A mutant TbbTIM [19]): 0.30 ± 0.02; yield of product (I172A mutant TbbTIM [19]; [23]): 15%

Q: Which “Average product yield (mole fraction), phosphite dianion-activated reaction” value (shortened to “Average product yield (mole fraction)”) (L232A mutant TbbTIM [20]) does the source give for `[2H][13CH](O)C=O` (stereo not drawn) [[2-^13C, 2-^2H]-GA] here?
A: 0.48 ± 0.02

Q: And the “Average product yield (mole fraction)” value (I172V mutant TbbTIM [18])?
A: 0.63 ± 0.01

Q: And the “Fractional yield from reaction at the enzyme active site” value (I172V mutant TbbTIM [18])?
A: 0.40

Q: What about the “Average product yield (mole fraction)” value (I172A mutant TbbTIM [19]) of the same molecule?
A: 0.25 ± 0.02

Q: With `O=C[13CH2]O` [[2-^13C]-GA] as the molecule, how does the “Average product yield (mole fraction)” value (L232A mutant TbbTIM [20]) read?
A: 0.01 ± 0.001

Q: And the yield of product (L232A mutant TbbTIM [20]; [24])?
A: 1%

Q: What about the “Average product yield (mole fraction)” value (I172V mutant TbbTIM [18]) of the same molecule?
A: 0.13 ± 0.01

Q: And the “Fractional yield from reaction at the enzyme active site” value (I172V mutant TbbTIM [18])?
A: 0.04

Q: What about the “Average product yield (mole fraction)” value (I172A mutant TbbTIM [19]) of the same molecule?
A: 0.02 ± 0.001

Q: What about the yield of product (I172A mutant TbbTIM [19]; [24]) of the same molecule?
A: 2%

Q: Which results are given for `O=[As](O)(O)O` [arsenate, arsenate dianion, reference compound]?
A: Ki (wildtype TbbTIM [3]; read-out: Ki (competitive inhibitor), arsenate dianion, competitive): 4.6 mM; Ki (WT chicken TIM [6]; [25]): 11 mM; Ki (E165D chicken TIM [8]; [25]): 12 mM; Ki (E165D/S96P chicken TIM [9]; [25]): 2.1 mM

Q: With `[2H]C(O)C(=O)COP(=O)(O)O` (stereo not drawn) [d-DHAP] as the molecule, how does the “Fractional Product Yield fE” value (L232A mutant TbbTIM [5]; pD 7.9, 25 °C) read?
A: 0.86

Q: And the “Fractional Product Yield fE” value (I172A mutant TbbTIM [7]; pD 7.9, 25 °C)?
A: 0.37

Q: With `O=C[C@H](O)COP(=O)(O)O` [d-GAP] as the molecule, how does the “Fractional Product Yield fE” value (L232A mutant TbbTIM [5]; pD 7.9, 25 °C) read?
A: 0.098

Q: And the “Fractional Product Yield fE” value (I172A mutant TbbTIM [7]; pD 7.9, 25 °C)?
A: 0.50
